Molecules are shown by their SMILES.

The target in the first assay is PRC2 complex (EZH2 Y641F/EED/SUZ12/RbAp48/AEBP2) (Homo sapiens (Human), UniProt Q15910, Y641F). The assay can be described thus: Activity of a compound to PRC2 complex (EZH2 Y641F), HTRF.
Sequence of PRC2 complex (EZH2 Y641F/EED/SUZ12/RbAp48/AEBP2) (Q15910 whole entry Y641F): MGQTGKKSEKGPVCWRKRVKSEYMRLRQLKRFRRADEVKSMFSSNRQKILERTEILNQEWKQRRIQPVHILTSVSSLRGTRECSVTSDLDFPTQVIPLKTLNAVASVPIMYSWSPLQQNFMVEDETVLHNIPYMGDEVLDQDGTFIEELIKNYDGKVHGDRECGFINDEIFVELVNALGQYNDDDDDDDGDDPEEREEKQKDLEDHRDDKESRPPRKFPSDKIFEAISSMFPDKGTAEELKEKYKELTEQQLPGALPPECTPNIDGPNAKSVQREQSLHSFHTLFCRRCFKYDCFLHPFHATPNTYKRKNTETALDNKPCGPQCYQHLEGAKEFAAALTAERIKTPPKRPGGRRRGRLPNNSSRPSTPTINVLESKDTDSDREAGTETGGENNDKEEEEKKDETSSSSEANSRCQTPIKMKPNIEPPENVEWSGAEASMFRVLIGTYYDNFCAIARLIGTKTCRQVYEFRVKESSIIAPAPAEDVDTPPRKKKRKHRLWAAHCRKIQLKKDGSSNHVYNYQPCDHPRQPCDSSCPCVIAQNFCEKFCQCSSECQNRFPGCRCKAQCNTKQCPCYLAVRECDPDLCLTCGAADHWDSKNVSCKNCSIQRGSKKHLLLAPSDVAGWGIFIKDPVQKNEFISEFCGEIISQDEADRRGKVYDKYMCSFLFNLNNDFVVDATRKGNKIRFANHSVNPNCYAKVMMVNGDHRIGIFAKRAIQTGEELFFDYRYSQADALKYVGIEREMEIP
Sequence of PRC2 complex (EZH2 Y641F/EED/SUZ12/RbAp48/AEBP2) (O75530 whole entry partner): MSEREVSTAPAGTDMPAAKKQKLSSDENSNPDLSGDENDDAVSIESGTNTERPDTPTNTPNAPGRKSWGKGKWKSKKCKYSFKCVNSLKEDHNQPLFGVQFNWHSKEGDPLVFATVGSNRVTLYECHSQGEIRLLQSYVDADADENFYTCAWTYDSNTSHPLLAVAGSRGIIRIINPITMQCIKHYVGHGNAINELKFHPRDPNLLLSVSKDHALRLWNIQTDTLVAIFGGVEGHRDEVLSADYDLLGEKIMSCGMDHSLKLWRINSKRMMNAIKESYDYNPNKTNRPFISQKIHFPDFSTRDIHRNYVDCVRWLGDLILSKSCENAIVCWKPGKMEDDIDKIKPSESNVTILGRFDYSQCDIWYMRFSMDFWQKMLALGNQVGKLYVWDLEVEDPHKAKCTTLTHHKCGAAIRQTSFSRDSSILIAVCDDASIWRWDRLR
Sequence of PRC2 complex (EZH2 Y641F/EED/SUZ12/RbAp48/AEBP2) (Q15022 whole entry partner): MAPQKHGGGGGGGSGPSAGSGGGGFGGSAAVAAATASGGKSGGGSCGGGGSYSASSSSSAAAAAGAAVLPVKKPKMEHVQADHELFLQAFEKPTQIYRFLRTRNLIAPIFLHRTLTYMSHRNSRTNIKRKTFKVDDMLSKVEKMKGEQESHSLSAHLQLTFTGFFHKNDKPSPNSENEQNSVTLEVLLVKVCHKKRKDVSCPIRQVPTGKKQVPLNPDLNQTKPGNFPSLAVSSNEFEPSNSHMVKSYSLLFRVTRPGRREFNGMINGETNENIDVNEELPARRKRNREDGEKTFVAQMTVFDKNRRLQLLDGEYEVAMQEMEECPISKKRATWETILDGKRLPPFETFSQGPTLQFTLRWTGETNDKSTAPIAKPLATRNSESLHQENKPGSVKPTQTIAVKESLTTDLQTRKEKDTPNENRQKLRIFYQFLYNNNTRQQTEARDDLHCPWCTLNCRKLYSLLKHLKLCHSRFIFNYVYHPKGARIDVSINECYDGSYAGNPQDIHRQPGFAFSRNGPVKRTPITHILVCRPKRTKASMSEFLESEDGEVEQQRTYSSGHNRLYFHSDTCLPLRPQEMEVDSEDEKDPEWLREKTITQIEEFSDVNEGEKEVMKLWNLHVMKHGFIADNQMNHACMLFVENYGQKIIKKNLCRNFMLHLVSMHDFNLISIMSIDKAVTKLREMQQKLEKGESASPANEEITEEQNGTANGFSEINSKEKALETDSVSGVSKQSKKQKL
Sequence of PRC2 complex (EZH2 Y641F/EED/SUZ12/RbAp48/AEBP2) (Q09028 whole entry partner): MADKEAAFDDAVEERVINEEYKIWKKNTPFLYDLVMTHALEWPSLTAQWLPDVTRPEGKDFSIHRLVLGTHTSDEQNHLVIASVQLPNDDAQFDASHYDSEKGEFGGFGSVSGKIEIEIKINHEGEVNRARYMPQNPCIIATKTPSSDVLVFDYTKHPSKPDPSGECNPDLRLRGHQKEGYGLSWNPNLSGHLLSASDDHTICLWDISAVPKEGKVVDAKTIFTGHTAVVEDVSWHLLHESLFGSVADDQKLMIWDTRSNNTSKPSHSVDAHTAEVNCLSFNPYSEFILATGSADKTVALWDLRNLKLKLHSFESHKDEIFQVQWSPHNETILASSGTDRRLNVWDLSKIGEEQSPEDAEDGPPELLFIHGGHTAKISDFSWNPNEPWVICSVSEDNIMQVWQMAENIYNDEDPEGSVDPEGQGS
Sequence of PRC2 complex (EZH2 Y641F/EED/SUZ12/RbAp48/AEBP2) (Q6ZN18 whole entry partner): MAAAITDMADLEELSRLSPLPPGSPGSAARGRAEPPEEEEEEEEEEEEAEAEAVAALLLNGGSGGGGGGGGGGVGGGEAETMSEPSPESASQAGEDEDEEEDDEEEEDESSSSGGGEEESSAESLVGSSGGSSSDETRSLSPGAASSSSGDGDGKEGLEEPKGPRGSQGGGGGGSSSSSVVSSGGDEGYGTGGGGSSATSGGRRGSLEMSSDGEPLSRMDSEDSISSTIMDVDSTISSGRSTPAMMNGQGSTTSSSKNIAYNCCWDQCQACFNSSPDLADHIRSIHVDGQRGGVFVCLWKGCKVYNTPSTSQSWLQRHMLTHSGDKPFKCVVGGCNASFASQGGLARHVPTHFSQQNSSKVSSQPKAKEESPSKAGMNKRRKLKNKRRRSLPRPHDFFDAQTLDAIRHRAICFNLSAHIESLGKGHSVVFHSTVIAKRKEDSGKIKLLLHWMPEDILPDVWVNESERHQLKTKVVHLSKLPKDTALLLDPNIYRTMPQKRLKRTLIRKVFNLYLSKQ
Settings: not given
A general note: Time-resolved FRET reads energy transfer from a long-lived donor to a nearby acceptor.
By IC50 is commonly meant the concentration that gives 50% inhibition. Turning to `Cc1cc(C)c(CNC(=O)c2cc3cc(-c4ccnn4C)cn3c(C(C)N3CCC(N(C)C)CC3)c2C)c(=O)[nH]1` (stereo not drawn) [Example 106, N-((4,6-dimethyl-2-oxo-1,2-dihydropyridin-3-yl)methyl)-5-(1-(4-(dimethylamino)piperidine-1-yl)ethyl)-6-methyl-2-(1-methyl-1H-pyrazol-5-yl)indolizine-7-carboxamide], the IC50 was less than 100 nM.
In turn, `COc1ccc(-c2cc3cc(C(=O)NCc4c(C)cc(C)[nH]c4=O)c(C)c(C(C)N4CCOCC4)n3c2)cc1` (stereo not drawn) [Example 97, N-((4,6-dimethyl-2-oxo-1,2-dihydropyridin-3-yl)methyl)-2-(4-methoxyphenyl)-6-methyl-5-(1-morpholinoethyl)indolizine-7-carboxamide] registered an IC50 of 100 to 1000 nM.
On to `COc1cc(C)[nH]c(=O)c1CNC(=O)c1cc2c(-c3ccnc(N(C)C)c3)ccn2c(C(C)N2CCN(CC(F)(F)F)CC2)c1C` (stereo not drawn) [Compound 170, 1-(2-(dimethylamino)pyridin-4-yl)-N-((4-methoxy-6-methyl-2-oxo-1,2-dihydropyridin-3-yl)methyl)-6-methyl-5-(1-(4-(2,2,2-trifluoroethyl)piperazin-1-yl)ethyl)indolizine-7-carboxamide], for which the IC50 is less than 100 nM.
On the same count and under the same terms, the figure for `COc1cc(C)[nH]c(=O)c1CNC(=O)c1cc2cc(-c3cncn3C)cn2c(C(C)N2CCN(CC(F)(F)F)CC2)c1C` (stereo not drawn) [Example 137, N-((4-Methoxy-6-methyl-2-oxo-1,2-dihydropyridin-3-yl)methyl)-6-methyl-2-(1-methyl-1H-imidazol-5-yl)-5-(1-(4-(2,2,2-trifluoroethyl)piperazin-1-yl)ethyl)indolizine-7-carboxamide] is less than 100 nM.
The same measure, in the same setting: the figure for `Cc1cc(=O)c(CNC(=O)c2cc3c(-c4ccc(N)nc4)ccn3c(C(C)N3CCN(CC(F)(F)F)CC3)c2C)c(C)[nH]1` (stereo not drawn) [Compound 184, 1-(6-aminopyridin-3-yl)-N-((2,6-dimethyl-4-oxo-1,4-dihydropyridin-3-yl)methyl)-6-methyl-5-(1-(4-(2,2,2-trifluoroethyl)piperazin-1-yl)ethyl)indolizine-7-carboxamide] is less than 100 nM.

The assay is the same for the next values; noted with them: read-out: IC50 (EZH2_Y641F); EZH2 Y641F PRC2 complex, HTRF; class symbols.
In the case of `CCN(c1c(C)c(C(=O)NCc2c(C)cc(C)[nH]c2=O)cc2cc(-c3ccnn3C)cn12)C1CCOCC1` [Example 64, N-((4,6-dimethyl-2-oxo-1,2-dihydropyridin-3-yl)methyl)-5-(ethyl(tetrahydro-2H-pyran-4-yl)amino)-6-methyl-2-(4-morpholinephenyl)indolizine-7-carboxamide], the IC50 lay within 100 to 1000 nM.
With `CNc1ccc(-c2ccn3c([C@H](C)N4CCN(CC(F)(F)F)CC4)c(C)c(C(=O)NCc4c(OC)cc(C)[nH]c4=O)cc23)cn1` (single isomer, unassigned) [Compound 164, (S)—N-((4-methoxy-6-methyl-2-oxo-1,2-dihydropyridin-3-yl)methyl)-6-methyl-1-(6-(methylamino)pyridin-3-yl)-5-(1-(4-(2,2,2-trifluoroethyl)piperazin-1-yl)ethyl)indolizine-7-formamide or (R)—N-((4-methoxy-6-methyl-2-oxo-1,2-dihydropyridin-3-yl)methyl)-6-methyl-1-(6-(methylamino)pyridin-3-yl)-5-(1-(4-(2,2,2-trifluoroethyl)piperazin-1-yl)ethyl)indolizine-7-formamide], the IC50 is 100 to 1000 nM.
The same measure, in the same setting: the figure for `Cc1cc(C)c(CNC(=O)c2cc3cc(-c4ccc(N5CCNCC5)nc4)cn3c(C(C)N3CCOCC3)c2C)c(=O)[nH]1` (stereo not drawn) [Example 90, N-((4,6-dimethyl-2-oxo-1,2-dihydropyridin-3-yl)methyl)-6-methyl-5-(1-morpholinoethyl)-2-(6-(piperazin-1-yl)pyridin-3-yl)indolizine-7-carboxamide] is 1000 to 10000 nM; for `Cc1cc(C(F)(F)F)c(CNC(=O)c2cc3c(-c4ccc(N)nc4)ccn3c(C(C)N3CCN(CC(F)(F)F)CC3)c2C)c(=O)[nH]1` (stereo not drawn) [Compound 186, 1-(6-aminopyridin-3-yl)-6-methyl-N-((6-methyl-2-oxo-4-(trifluoromethyl)-1,2-dihydropyridine-3-yl)methyl)-5-(1-(4-(2,2,2-trifluoroethyl)piperazin-1-yl)ethyl)indolizine-7-carboxamide] it is less than 100 nM; for `CCN(c1c(C)c(C(=O)NCc2c(OC)cc(C)[nH]c2=O)cc2c(-c3ccnc(N(C)C)c3)ccn12)C1CCN(CC(F)(F)F)CC1` [Compound 203, 1-(2-(dimethylamino)pyridin-4-yl)-5-(ethyl(1-(2,2,2-trifluoroethyl)piperidin-4-yl)amino)-N-((4-methoxy-6-methyl-2-oxo-1,2-dihydropyridin-3-yl)methyl)-6-methylindolizine-7-carboxamide] it is less than 100 nM.
`COc1cc(C)[nH]c(=O)c1CNC(=O)c1cc2c(-c3ccc(C)nc3)ccn2c(C(C)N2CCN(CC(F)(F)F)CC2)c1C` (stereo not drawn) [Compound 192, N-((4-methoxy-6-methyl-2-oxo-1,2-dihydropyridin-3-yl)methyl)-6-methyl-1-(6-methylpyridin-3-yl)-5-(1-(4-(2,2,2-trifluoroethyl)piperazin-1-yl)ethyl)indolizine-7-carboxamide]: the IC50 is less than 100 nM.
Still for that read-out and setting: the figure for `Cc1cc(C)c(CNC(=O)c2cc3cc(-c4ccn(C)n4)cn3c(C(C)N3CCOCC3)c2C)c(=O)[nH]1` (stereo not drawn) [Example 85, N-((4,6-dimethyl-2-oxo-1,2-dihydropyridin-3-yl)methyl)-6-methyl-2-(1-methyl-1H-pyrazole-3-yl)-5-(1-morpholinoethyl)indolizine-7-carboxamide] is 100 to 1000 nM.
On to `CCN(c1c(C)c(C(=O)NCc2c(C)cc(C)[nH]c2=O)cc2cc(-c3ccccc3)cn12)C1CCOCC1` [Example 63], for which the IC50 lay within 100 to 1000 nM.
For `COc1cc(C)[nH]c(=O)c1CNC(=O)c1cc2c(-c3cc(C)nc(C)c3)ccn2c([C@H](C)N2CCN(CC(F)(F)F)CC2)c1C` (single isomer, unassigned) [Compound 175, (S)-1-(2,6-dimethylpyridin-4-yl)-N-((4-methoxy-6-methyl-2-oxo-1,2-dihydropyridine-3-yl)methyl)-6-methyl-5-(1-(4-(2,2,2-trifluoroethyl)piperazin-1-yl)ethyl)indolizine-7-carboxamide or (R) 1-(2,6-dimethylpyridin-4-yl)-N-((4-methoxy-6-methyl-2-oxo-1,2-dihydropyridine-3-yl)methyl)-6-methyl-5-(1-(4-(2,2,2-trifluoroethyl)piperazin-1-yl)ethyl)indolizine-7-carboxamide], the IC50 fell in the range of 100 to 1000 nM.
Same read-out and setting: the figure for `COc1cc(-c2ccn3c([C@H](C)N4CCN(CC(F)(F)F)CC4)c(C)c(C(=O)NCc4c(OC)cc(C)[nH]c4=O)cc23)ccn1` (single isomer, unassigned) [Compound 194, (S)—N-((4-methoxy-6-methyl-2-oxo-1,2-dihydropyridin-3-yl)methyl)-1-(2-methoxypyridin-4-yl)-6-methyl-5-(1-(4-(2,2,2-trifluoroethyl)piperazin-1-yl)ethyl)indolizine-7-carboxamide or (R)—N-((4-methoxy-6-methyl-2-oxo-1,2-dihydropyridin-3-yl)methyl)-1-(2-methoxypyridin-4-yl)-6-methyl-5-(1-(4-(2,2,2-trifluoroethyl)piperazin-1-yl)ethyl)indolizine-7-carboxamide] is less than 100 nM; for `COc1cc(C)[nH]c(=O)c1CNC(=O)c1cc2c(-c3ccc(C)nc3C)ccn2c([C@H](C)N2CCN(CC(F)(F)F)CC2)c1C` (single isomer, unassigned) [Compound 178, (S)-1-(2,6-dimethylpyridin-3-yl)-N-((4-methoxy-6-methyl-2-oxo-1,2-dihydropyridine-3-yl)methyl)-6-methyl-5-(1-(4-(2,2,2-trifluoroethyl)piperazin-1-yl)ethyl)indolizine-7-carboxamide or (R) 1-(2,6-dimethylpyridin-3-yl)-N-((4-methoxy-6-methyl-2-oxo-1,2-dihydropyridine-3-yl)methyl)-6-methyl-5-(1-(4-(2,2,2-trifluoroethyl)piperazin-1-yl)ethyl)indolizine-7-carboxamide] it is 100 to 1000 nM.
For `COc1ccc(-c2cc3cc(C(=O)NCc4c(C)cc(C)[nH]c4=O)c(C)c(C(C)N4CCOCC4)n3c2)c(OC)c1` (stereo not drawn) [Example 38, 2-(2,4-dimethoxyphenyl)-N-((4,6-dimethyl-2-oxo-1,2-dihydropyridin-3-yl)methyl)-6-methyl-5-(1-morphinolinylethyl)indolizine-7-carboxamide], the IC50 is less than 100 nM.
For the compound `Cc1cc(C)c(CNC(=O)c2cc3cc(-c4cncs4)cn3c(C(C)N3CCN(CC(F)(F)F)CC3)c2C)c(=O)[nH]1` (stereo not drawn) [Example 141, N-((4,6-dimethyl-2-oxo-1,2-dihydropyridin-3-yl)methyl)-6-methyl-2-(thiazole-5-yl)-5-(1-(4-(2,2,2-trifluoroethyl)piperazin-1-yl)ethyl)indolizine-7-carboxamide], the IC50 lay within 100 to 1000 nM.
`Cc1cc(C)c(CNC(=O)c2cc3c(-c4cnn(C5CCOCC5)c4)ccn3c(C(C)N3CCN(CC(F)(F)F)CC3)c2C)c(=O)[nH]1` (stereo not drawn) [Compound 190, N-((4,6-dimethyl-2-oxo-1,2-dihydropyridin-3-yl)methyl)-6-methyl-1-(1-(tetrahydro-2H-pyran-4-yl)-1H-pyrazol-4-yl)-5-(1-(4-(2,2,2-trifluoroethyl)piperazin-1-yl)ethyl)indolizine-7-carb oxamide]: the IC50 is less than 100 nM.
Still for that read-out and setting: the figure for `Cc1cc(C)c(CNC(=O)c2cc3cc(-c4ccc(N5CCOCC5)cc4)cn3c(C(C)N3CCOCC3)c2C)c(=O)[nH]1` (stereo not drawn) [Example 32, N-((4,6-dimethyl-2-oxo-1,2-dihydropyridin-3-yl)methyl)-6-methyl-5-(1-morphinolinylethyl)-2-(4-morphinolinylphenyl)indolizine-7-carboxamide] is less than 100 nM; for `Cc1cc(C)c(CNC(=O)c2cc3cc(C(=O)N4CCOCC4)cn3c(C(C)N3CCOCC3)c2C)c(=O)[nH]1` (stereo not drawn) [Example 126, N-((4,6-dimethyl-2-oxo-1,2-dihydropyridin-3-yl)methyl)-6-methyl-2-(morpholin-4-carbonyl)-5-(1-morpholinoethyl)indolizine-7-carboxamide] it is less than 100 nM.
